Source: patent publication US5418239A, “Tricyclic heterocyclic compounds, their production and use” (Takeda Chemical Industries, Ltd., priority 1990, dated 1995)

Assays:
[1] = molecular target: T1, Acyl-CoA:cholesterol transferase (ACAT) (Rattus norvegicus, UniProt Q7TQM4); assay: Acyl-CoA:cholesterol transferase (ACAT) inhibitory activity (labeled cholesterol ester production, small intestinal mucosal microsome fraction); format: biochemical, male sprague-Dawley rat; conditions: rat small intestinal mucosal microsomes; for inhibition at 1 µM: 10^-6 M test compound, read-out: ACAT inhibition rate (%) (labeled cholesterol ester production inhibiting rate); for IC50: plotted at a plurality of concentration levels, read-out: IC50 (50% inhibitory concentration, ACAT)
T1 construct: small intestinal mucosal microsome fraction of a 6-week-old male sprague-Dawley rat; from tissue; host or cells: small intestinal mucosal microsome fraction, 6-week-old male Sprague-Dawley rat
T1 sequence (Q7TQM4 1-524): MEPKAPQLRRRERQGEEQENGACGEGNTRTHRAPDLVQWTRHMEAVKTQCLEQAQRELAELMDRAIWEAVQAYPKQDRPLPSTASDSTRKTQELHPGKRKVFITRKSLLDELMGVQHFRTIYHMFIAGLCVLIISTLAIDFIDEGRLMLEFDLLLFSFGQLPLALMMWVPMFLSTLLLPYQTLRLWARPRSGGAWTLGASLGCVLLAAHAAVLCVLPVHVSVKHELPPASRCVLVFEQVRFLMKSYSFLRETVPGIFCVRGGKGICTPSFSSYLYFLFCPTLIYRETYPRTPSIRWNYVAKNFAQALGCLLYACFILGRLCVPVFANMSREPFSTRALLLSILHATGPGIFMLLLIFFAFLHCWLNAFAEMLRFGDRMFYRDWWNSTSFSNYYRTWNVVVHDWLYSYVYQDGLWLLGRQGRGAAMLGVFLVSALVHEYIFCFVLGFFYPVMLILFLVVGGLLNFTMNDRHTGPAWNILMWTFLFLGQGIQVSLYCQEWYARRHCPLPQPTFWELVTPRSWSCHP
Experimental: Samples of ACAT enzyme were prepared from the small intestinal mucosal microsome fraction of a 6-week-old male sprague-Dawley rat fasted for 20 hours in accordance with the procedure described by Heider et al, Journal of Lipid Research 24, 1127 (1982).
ACAT activity was determined in accordance with the method of Helgerud et al., Journal of Lipid Research 22, 271 (1981), by measuring the amount of labeled cholesterol ester produced from [1-^14 C]oloyl-CoA and endogenous cholesterol.
The 50% inhibitory concentration (IC50) determined by plotting at a plurality of concentration levels is also shown.

plasma cholesterol = assay: Plasma cholesterol lowering activity in cholesterol-fed rats; format: in vivo, Male Sprague-Dawley rats; conditions: 1% cholesterol diet containing 0.0003% test compound, 7 days; ingested about 0.23-0.24 mg/kg/day; mean ± S.D.; * p < 0.05 (t-test) against control group (181.8 ± 60.4)
Experimental: Male Sprague-Dawley rats aged 7 weeks were divided into groups based on body weight and put on a 1% cholesterol diet (the rat diet supplemented with 0.5% cholic acid and 5% olive oil) containing 0.0003% of the test compound for 7 days. The blood was sampled from surfeited rats between 8:30 and 10:00 a.m. and the plasma cholesterol concentration was enzymatically determined. The amount of the compound ingested was calculated from the food consumption.

SMILES | inhibition at 1 µM [1] | IC50 [1] | Plasma cholesterol (plasma cholesterol)
CC(C)(C)c1cc(-c2c(NC(=O)Nc3ccc(F)cc3F)c(=O)oc3cc4c(cc23)CCC4)cc(C(C)(C)C)c1O [Example 8, N-[4-(3,5-di-tert-butyl-4-hydroxyphenyl)-2-oxo-2,6,7,8-tetrahydrocyclopenta[g] [1]benzopyran-3-yl]-N'-(2,4-difluorophenyl]urea] | 99% | – | –
O=C(Cc1ccc(F)cc1F)Nc1cnc2cc3c(cc2c1-c1ccccc1Cl)CCC3 [Example 4, 4-(2-chlorophenyl)-3-(2,4-difluorophenylacetylamino)-7,8-dihydro-6H-cyclopenta(g)quinoline] | 91.5% | – | –
COc1ccc(C=CC(=O)Nc2c(-c3ccccc3C)c3cc4c(cc3oc2=O)CCC4)cc1OC [Example 13, 3-(3,4-dimethoxycinnamoylamino) -4-(2-methylphenyl)-7,8-dihydrocyclopenta[g] 1benzopyran-2(6H)-one] | 89.9% | – | –
Cc1ccccc1-c1c(NC(=O)Nc2ccc(F)cc2F)cnc2cc3c(cc12)CCC3 [Example 2, N-[7,8-Dihydro-4-(2-methylphenyl)-6H-cyclopenta[g]-quinolin-3-yl]-N'-(2,4-difluorophenyl)urea] | 99.2% | 3.9 nM | 78.5 ± 10.2 mg/dL
CC(=O)Oc1c(C)cc(NC(=O)Nc2c(-c3ccccc3C)c3cc4c(cc3n(C)c2=O)CCC4)cc1C [Example 12, N-(4-acetoxy-3,5-dimethylphenyl)-N'-[1-methyl-4-(2-methylphenyl)-2-oxo-l,2,7,8-tetrahydro-6H-cyclopenta[g]quinolin-3-yl]urea] | 91.1% | – | –
Cc1ccccc1-c1c(NC(=O)Cc2cc(C(C)(C)C)c(O)c(C(C)(C)C)c2)c(=O)oc2cc3c(cc12)CCC3 [Example 15, 3-(3,5-di-tert-butyl-4-hydroxyphenylacetylamino) -4-(2-methylphenyl)-7,8-dihydrocyclopenta-[g] [1]benzopyran-2(6H)-one] | 89.6% | – | –
Cc1ccccc1-c1c(NC(=O)Nc2ccc(F)cc2F)c(=O)n(C)c2cc3c(cc12)CCC3 [Example 19, N-(2,4-difluorophenyl)-N'-[1-methyl-4-(2-methylphenyl)-2-oxo-l,2,7,8-tetrahydro-6H-cyclopenta-[g]quinolin-3-yl]urea] | 98.2% | – | –
Cc1ccccc1-c1c(NC(=O)C=Cc2ccc(O)c(O)c2)c(=O)oc2cc3c(cc12)CCC3 [Example 18, 3-(3,4-dihydroxycinnamoylamino)-4-(2-methylphenyl)-7,8-dihydrocyclopenta [g] [1]benzopyran-2(6H)-one] | 86.9% | – | –
O=C(Nc1ccc(F)cc1F)Nc1cnc2cc3c(cc2c1-c1ccccc1Cl)CCC3 [Example 1, N-[4-(2-chlorophenyl)-7,8-dihydro-6H-cyclopenta[g]quinolin-3-yl]-N'-(2,4-difluorophenyl)urea] | 99.3% | 3.8 nM | 80.8 ± 18.6 mg/dL
COc1nc2cc3c(cc2c(-c2ccccc2Cl)c1NC(=O)Nc1cc(C)c(OC(C)=O)c(C)c1)CCC3 [Example 11, N-(4-acetoxy-3,5-dimethylphenyl)-N'-[4-(2-chlorophenyl)-7,8-dihydro-2-methoxy-6H-cyclopenta[g]-quinolin-3-yl]urea] | 75.6% | – | –

The next lines start with results.

inhibition at 1 µM [1] | IC50 [1] | SMILES | Plasma cholesterol (plasma cholesterol)
99.5% | – | Cc1ccccc1-c1c(NC(=O)Nc2ccc(F)cc2F)c(=O)oc2cc3c(cc12)CCC3 [Example 3, N-(2,4-difluorophenyl)-N'-[4-(2-methylphenyl)-2-oxo-2,6,7,8-tetrahydrocyclopenta[g][1]-benzopyran-3-yl]urea] | 78.1 ± 12.6 mg/dL
97.6% | – | Cc1ccccc1-c1c(NC(=O)Nc2cc(C)c(O)c(C)c2)c(=O)oc2cc3c(cc12)CCC3 [Example 17, N-(4-hydroxy-3,5-dimethylphenyl)-N'-[4-(2-methylphenyl)-2-oxo-2,6,7,8-tetrahydrocyclopenta-[g] [1]benzopyran-3-yl]urea] | –
94.6% | – | Cc1ccccc1-c1c(NC(=O)Nc2ccc(N(C)C)cc2)c(=O)oc2cc3c(cc12)CCC3 [Example 9, N-(4-dimethylaminophenyl)-N'-[4-(2-methylphenyl)-2-oxo-2,6,7,8-tetrahydrocyclopenta[g] [1]benzo-pyran-3-yl]urea] | –
94.4% | – | COc1cc(NC(=O)Nc2c(-c3ccccc3C)c3cc4c(cc3oc2=O)CCC4)cc(OC)c1O [Example 16, N-(4-hydroxy-3,5-dimethoxyphenyl)-N'-[4-(2-methylphenyl)-2-oxo-2,6,7,8-tetrahydrocyclopenta [g] [1]benzopyran-3-yl]urea] | –
98.7% | – | Cc1ccccc1-c1c(NC(=O)Nc2ccc(F)cc2F)c(=O)oc2cc3c(cc12)CCCC3 [Example 10, N-(2,4-difluorophenyl)-N'-[4-(2-methylphenyl)-6,7,8,9-tetrahydro-2-oxo-2H-naphtho[2,3-b]pyran-3-yl]urea] | –
